Data published in patent US8236839B2, “Dual-acting antihypertensive agents” (Theravance, Inc., priority 2007, dated 2012).

What was measured:
human AT1 receptor = target: T1, human AT1 receptor (Homo sapiens, UniProt P30556); experiment: AT1 radioligand binding assay; details: displacement of [Eu]AngII at 2 nM, membranes of CHO-K1 cells expressing human AT1 receptor; read-out: pKi at the AT1 receptor (converted)
T1 construct: expressed in transfected cells; membrane preparation
T1 sequence (P30556 1-359): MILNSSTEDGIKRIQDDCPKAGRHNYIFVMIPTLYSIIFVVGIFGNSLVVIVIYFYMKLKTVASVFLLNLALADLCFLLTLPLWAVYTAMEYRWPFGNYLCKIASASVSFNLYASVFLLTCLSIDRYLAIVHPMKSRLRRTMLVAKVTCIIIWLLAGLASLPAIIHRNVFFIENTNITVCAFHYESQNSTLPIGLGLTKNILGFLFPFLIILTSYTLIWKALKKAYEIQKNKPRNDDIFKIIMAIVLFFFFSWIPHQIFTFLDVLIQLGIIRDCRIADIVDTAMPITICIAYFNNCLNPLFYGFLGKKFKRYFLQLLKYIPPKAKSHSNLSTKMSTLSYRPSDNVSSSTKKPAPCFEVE
Method: These in vitro assays were used to assess the ability of test compounds to bind to the AT1 and the AT2 receptors.
Chinese hamster ovary (CHO-K1) derived cell lines stably expressing the cloned human AT1 or AT2 receptors, respectively, were grown in HAM's-F12 medium supplemented with 10% fetal bovine serum, 10 μg/ml penicillin/streptomycin, and 500 μg/ml geneticin in a 5% CO2 humidified incubator at 37° C. AT2 receptor expressing cells were grown in the additional presence of 100 nM PD123,319 (AT2 antagonist). When cultures reached 80-95% confluence, the cells were washed thoroughly in PBS and lifted with 5 mM EDTA. Cells were pelleted by centrifugation and snap frozen in MeOH-dry ice and stored at −80° C. until further use.
For membrane preparation, cell pellets were resuspended in lysis buffer (25 mM Tris/HCl pH 7.5 at 4° C., 1 mM EDTA, and one tablet of Complete Protease Inhibitor Cocktail Tablets with 2 mM EDTA per 50 mL buffer (Roche cat. #1697498, Roche Molecular Biochemicals, Indianapolis, Ind.)) and homogenized using a tight-fitting Dounce glass homogenizer (10 strokes) on ice. The homogenate was centrifuged at 1000×g, the supernatant was collected and centrifuged at 20,000×g. […] Protein concentration of the membrane suspension was determined by the method described in Bradford (1976) Anal Biochem. 72:248-54. […]

NEP enzyme = target: T2, NEP enzyme (Homo sapiens, UniProt P08473); experiment: In vitro enzyme inhibition assay at NEP; format: biochemical; details: fluorogenic peptide substrate; human or rat NEP not given; read-out: pIC50 for the NEP enzyme (converted)
T2 construct: purchased R&D Systems, Minneapolis, Minn; 1182-ZN
Method: The inhibitory activities of compounds at human and rat NEP and human ACE were determined using in vitro assays as described below.
Rat NEP was prepared from the kidneys of adult Sprague Dawley rats. Whole kidneys were washed in cold PBS and brought up in ice-cold lysis buffer (1% Triton X-114, 150 mM NaCl, 50 mM Tris pH 7.5; Bordier (1981) J. Biol. Chem. 256:1604-1607) in a ratio of 5 mL of buffer for every gram of kidney. Samples were homogenized using a polytron hand held tissue grinder on ice. Homogenates were centrifuged at 1000×g in a swinging bucket rotor for 5 minutes at 3° C. The pellet was resuspended in 20 mL of ice cold lysis buffer and incubated on ice for 30 minutes. […] Protein concentrations were quantitated using a BCA detection system with BSA as a standard. […]
The assays were performed in 384-well white opaque plates at room temperature using the respective fluorogenic peptides at a concentration of 10 μM in assay buffer (50 mM Tris/HCl at 25° C., 100 mM NaCl, 0.01% Tween-20, 1 μM Zn, 0.025% BSA). […] The rat NEP enzyme preparation was used at a concentration that yielded quantitative proteolysis of 3 μM of Mca-RRL within 20 minutes at room temperature.
Assays were started by adding 25 μL of enzyme to 12.5 μL of test compound at 12 concentrations (10 μM to 20 pM). […] Plates were read on a fluorometer with excitation and emission wavelengths set to 320 nm and 405 nm, respectively. […]

T2 sequence (P08473 52-750 limits assumed): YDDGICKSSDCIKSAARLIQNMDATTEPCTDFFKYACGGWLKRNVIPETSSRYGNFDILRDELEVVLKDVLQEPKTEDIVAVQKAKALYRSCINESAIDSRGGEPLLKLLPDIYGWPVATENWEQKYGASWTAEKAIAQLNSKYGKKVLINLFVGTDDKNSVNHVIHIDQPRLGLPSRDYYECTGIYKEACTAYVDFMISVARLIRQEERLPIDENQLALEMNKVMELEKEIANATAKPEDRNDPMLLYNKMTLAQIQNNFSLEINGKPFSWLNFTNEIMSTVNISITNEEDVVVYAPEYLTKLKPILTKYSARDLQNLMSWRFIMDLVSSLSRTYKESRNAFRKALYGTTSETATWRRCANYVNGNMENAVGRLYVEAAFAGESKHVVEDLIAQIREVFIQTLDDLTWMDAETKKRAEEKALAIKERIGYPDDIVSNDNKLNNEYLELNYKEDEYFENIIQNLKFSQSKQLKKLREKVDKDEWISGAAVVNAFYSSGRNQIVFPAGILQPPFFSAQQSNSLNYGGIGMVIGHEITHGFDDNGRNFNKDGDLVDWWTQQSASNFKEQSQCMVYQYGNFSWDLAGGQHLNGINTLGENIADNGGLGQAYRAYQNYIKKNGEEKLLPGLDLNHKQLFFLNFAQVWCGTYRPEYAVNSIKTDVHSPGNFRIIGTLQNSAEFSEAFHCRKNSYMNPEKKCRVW

Ki (human AT1 receptor) [nM] | IC50 (NEP enzyme) [nM] | Structure (SMILES)
< 10 | ≤ 100 | CCCCCN(Cc1ccc(-c2ccccc2-c2nnn[nH]2)cc1)C(=O)[C@H](CC(=O)O)NC(=O)C(CS)CC(C)C (stereo partly drawn) [Example 1, (S)-3-(2-Mercaptomethyl-4-methylpentanoylamino)-N-pentyl-N-[2′1-(1H-tetrazol-5-yl)biphenyl-4-ylmethyl]succinamic Acid]
< 10 | ≤ 100 | CCCCCN(Cc1ccc(-c2ccccc2-c2nnn[nH]2)cc1)C(=O)N1C[C@@H](NC(=O)C(CC(C)C)C(=O)NO)C[C@H]1C(=O)O (stereo partly drawn) [Example 2, (2S,4S)-4-(2-Hydroxycarbamoyl-4-methylpentanoylamino)-1-{pentyl[2′-(1H-tetrazol-5-yl)biphenyl-4-ylmethyl]carbamoyl}pyrrolidine-2-carboxylic Acid]
